The source of these data is patent US10136645B2, “Antimicrobial composition” (MicroBio Solutions Inc., priority 2015, dated 2018).

Data set [1] relates to E. coli on raw chicken piece. Kind of data set: Efficacy and residual growth inhibition on inoculated raw chicken pieces. The class given is cell-based. The source says:
In the following example it is shown the residual effect of a combination of LAE/H2O2 compared with peracetic acid (PAA). The peracetic acid is often used in the food industry to sanitize food (fruit, vegetables, meat and poultry). The peracetic acid has a strong odor, is highly reactive and unstable when diluted and its use is limited to 80 ppm on food in the majority of countries worldwide regulation (e.g. US-FDA regulation 21CFR). For this example a solution of 200 ppm of lauric arginate with 1000 ppm of hydrogen peroxide is prepared and acidified to pH 2.5 using citric acid. The peracetic acid used is provided by Sigma-Aldrich.
Raw chicken pieces of the same size and weight are first soaked in an inoculating solution containing E. coli and incubated 30 minutes at 30° C. to allow the adhesion of bacteria on the surfaces of the sample. All samples are then soaked in a disinfectant solution (LAE/H2O2 or PAA) or a control (water) for a period of 30 seconds followed by a drying period drip for 2 minutes. Three replicates were completed per treatment. After the treatment, the samples were submerged in a neutralizing growth medium (D/E Neutralizing Broth) to analyze the populations of E. coli after the treatment or stored at room temperature in a sterile bags 24 hours before analyzed for populations of E. coli.

Data set [2] deals with E. coli. Kind of data set: Minimal bactericidal time (MBT) at different contact times. The conditions noted are these: 1000 active ppm H2O2 alone. The class given is cell-based. How it is done: (§1) The antimicrobial effectiveness of the compositions of the present invention was tested. In this experiment, the test organism was E. coli and the final bacterial concentrations was 10^6 to 10^7 cfu/ml. Inoculum was contacted with either the combinations of LAE/H2O2 or individual, at different active concentration levels for a contact time of 30 seconds or more. The aliquots of this contaminated solution is used for determinate the minimal bactericidal concentration (MBC) for kill bacteria in the aliquots at 30 sec. contact time. Table 1 summarizes the efficacy of each biocide and their blends, and the Synergy index of each combination. In the same condition the minimal bactericidal time (MBT) was also evaluate with a combination of LAE:H2O2 (1:10) at different contact time. The table 2 summarizes the minimal bactericidal time for each biocide and a blend.

For data set [3], the system named is Bacillus subtilis (ATCC#19659) spores. The experiment in a line: Sporicidal activity, quantitative suspension test EN 13704:2002. The class given is cell-based. How it is done: The sporicidal activity of a given product is defined by its capacity to reduce at least by 3 log (cfu/ml) the amount of Bacillus subtilis bacterial spores in suspension, in the conditions established in the method.
The test organism in the form of a test suspension was prepared containing endospores from Bacillus subtilis (ATCC#19659). The endospores were specifically prepared from a culture grown on Nutrient agar, to which additional sporulation enhancements were added. Plates were harvested with sterile water and endospores were purified by repeated centrifugations and resuspensions in water. The final wash was in 70% w/w ethanol for 30 minutes, to ensure the death of all vegetative bacteria.

The next data set has as its system B. subtilis spore. Kind of data set: Spore germination inhibition in TSB with low concentration solution. Conditions: low concentration solution (1:200 dilution); 30° C., 72 hours, visible growth. The class given is cell-based, Bacillus subtilis. The protocol: The spore contaminated media culture was then incubated at 30° C. for 72 hours for detect the germination of the spore by the presence of a visually detectable growth. Three replicates were completed per treatment.

Data set [4] has as its system E. coli. Kind of data set: Minimal bactericidal concentration (MBC) at 30 sec. contact time. The class given is cell-based. Conditions: alone or in blend, 10^6 to 10^7 cfu/ml. The protocol:
as §1

The conditions of data set [5]: animal toxicological studies; cited from earlier work.

Turning to `CC(=O)OO` [PAA, peracetic acid], the “Average Log10 cfu/sample 2 min. after treatment” value in data set [1] (30 seconds soak, 2 min drip drying, LAE/H2O2 200/1000 ppm pH 2.5) is listed as 0.56 Log10 cfu/sample. Moreover, the “Log10 reduction vs control 2 min. after treatment” value in data set [1] (30 seconds soak, LAE/H2O2 200/1000 ppm pH 2.5, PAA 80 ppm) came to 3.81 Log10. Besides, the “Average Log10 cfu/sample 24 hours after treatment” value in data set [1] (stored 24 hours at room temperature, LAE/H2O2 200/1000 ppm, PAA 80 ppm) came out at 2.51 Log10 cfu/sample.

Regarding `OO` [Example H2O2, hydrogen peroxide], in the data set on E. coli [2], the MBT is greater than 5 min. The “Average Log 10 cfu/ml reduction after 10 minutes contact time” value in data set [3] (high concentration treatment solution (10% H2O2)) is greater than 3 Log 10 cfu/ml. Also, the “Spore germination inhibition activity” value in the data set on B. subtilis spore is reported as “No inhibition”.

Regarding `CCCCCCCCCCCC(=O)N[C@@H](CCCN=C(N)N)C(=O)OCC` [LAE, Lauric arginate ethyl ester], in the data set with E. coli [4] (H2O2 concentration for complete kill), the “MBC (active ppm) H2O2” value is 5000 active ppm. Moreover, the “MBC (active ppm) LAE” value in the data set with E. coli [4] (LAE concentration for complete kill) is listed as greater than 350 active ppm. In data set [3] (LAE alone, result not shown), the sporicidal activity result is reported as “no significant difference with the control”. Besides, the “systemic No Observable Adverse Effect Levels (NOAEL)” value in data set [5] is on record as 15,000 mg/L.
